Assay results reported in article PMC10492782, “Exploiting the aggregation propensity of beta-lactamases to design inhibitors that induce enzyme misfolding” (Nature Communications, 2023).

Experiments:
[1] = test system: E. coli strain lacking TEM (ATCC 25922); assay: Structured illumination microscopy, inclusion bodies in strain lacking TEM; assay type: cell-based, Escherichia coli; details: 12 μM, 120 min, pFTAA stain, SIM
Excerpt: (§1) Fig. 5 Induction of aggregation in cells. […] A single representative image is shown. […] A single representative image is shown. C SIM and brightfield images as in A, but for E. coli ATCC strain. […] A single representative image is shown. […] A single representative blot is shown. […] The corrected P-values were 0.6091, 0.0029, 0.0027, <0.0001, and 0.9992, from left to right. […] Statistics exactly as in E, but from 3 independent experiments. The corrected P-values were 0.8753, 0.9796, 0.0001, 0.0003, and 0.0003, from left to right. Source data are provided as a Source Data file.
The bacterial cultures were washed with PBS, and the number of bacteria was adjusted to 10^8–10^9 cells/mL. […] Then, cells were treated with LCO dyes (pFTAA; Amytacker^TM680 or Amytacker^TM545: final concentration of 0.5 µM; Ebba Biotech, Sweden) for at least 90 min. The absorption, emission, and excitation spectra for each dye were measured based on the standard Ebbabiotec advice (ebbabiotech.com).
Bacteria were fixed by adding 2.5% paraformaldehyde and 0.04 % glutaraldehyde (final concentrations) to the culture media, followed by incubation at room temperature for 15 min and 30 min on ice. Bacteria were then washed in PBS and resuspended in GTE buffer (50 mM glucose, 25 mM Tris, and 10 mM EDTA, pH 8.0). Directly preceding microscopic analysis, cells were transferred to a glass slide and covered with a coverslip. […]

[2] = test system: clinical isolates of E. coli containing TEM or SHV enzymes; assay: MIC of ampicillin with or without 30 µg/mL TEM3.2 in clinical isolates; assay type: cell-based, Escherichia coli; details: 30 μg/mL TEM3.2; 14 out of 16 isolates
Protocol: Determination of MIC values was performed using the broth microdilution method according to the EUCAST guideline, which was performed in 96-well polystyrene flat-bottom microtiter plates (BD Biosciences). Briefly, a single colony was inoculated into 5 mL Difco™ Mueller–Hinton Broth (BD Biosciences Ref 275730) and grown to the end-exponential growth phase in a shaking incubator at 37 °C. Cultures were subsequently diluted to a MacFarland (0.5 optical density) to reach 10^6 CFU/mL in fresh MHB medium. 50 µl of different concentrations of peptides ranging from 128 to 2 µg/mL were serially diluted to the sterile 96-well plate in MHB. 50 µL of the diluted bacteria in MHB were next pipetted into 96-well plates to reach the final volume of 100 µL. The bacteria grown with the maximum concentration of carrier and medium were considered positive and negative controls, respectively. The plates were statically incubated overnight at 37 °C to allow bacterial growth. OD was measured at 590 nm using a multipurpose ultraviolet–visible plate reader, and the absorbance of the bacterial growth was measured using an absorbance reader.

[3] = Tolerability, dose escalation; assay type: in vivo, female C57BL/6JAX mice; details: mice; for Tox beheviour Sub: subcutaneous
Protocol: We also performed a tolerability study using a dose escalation method by administering the peptide at 2, 5, 10, 15, and 20 mg/kg via different parenteral routes: intravenous (IV), intraperitoneal (IP), and subcutaneous (SC) in female C57BL/6JAX mice, aged 8–10 weeks (Suppl Table 4). […] Vehicle alone (0.9% NaCl) was also administered (IV). After 24 h the animals were sacrificed and the bacterial load in the bladder, kidney, and ureter was quantified by determining the number of colony-forming units (CFU) per mL of tissue extract (Fig. 7E–G). […]

[4] = target: T1, TEM beta-lactamase in E. coli strain UZ_TEM104 (Escherichia coli, UniProt P62593); assay: Western blot of inclusion body fraction; assay type: cell-based; details: 12 μM peptide in PBS, 120 min
T1 construct: endogenous in cells
Excerpt: as §1
Overnight cultures of bacteria were centrifuged for 30 min at 4000 × g and cells were washed with physiological water (NaCl 0.9%). Bacterial cells were treated by peptide at the appropriate concentration for at least 2 h at 37 C. The bacterial pellets were washed with 10 mL buffer A (50 mM HEPES, pH 7.5, 300 mM NaCl, 5 mM β-mercaptoethanol, 1.0 mM EDTA) and centrifuged at 4 °C for 30 min at 4000 × g. […]

T1 sequence (P62593 24-286 limits assumed): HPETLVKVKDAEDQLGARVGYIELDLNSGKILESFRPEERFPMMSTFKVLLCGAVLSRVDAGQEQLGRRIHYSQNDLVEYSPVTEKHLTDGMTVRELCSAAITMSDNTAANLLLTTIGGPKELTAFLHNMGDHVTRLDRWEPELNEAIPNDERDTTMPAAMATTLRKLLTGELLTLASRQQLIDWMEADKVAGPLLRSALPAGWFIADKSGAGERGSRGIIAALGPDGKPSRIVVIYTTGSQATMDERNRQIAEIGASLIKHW

Substance: Ac-RLTAFLHNRRPRLTAFLRQRR-NH2 [TEM3.2]
- inclusion body formation (in words) [1]: only very limited inclusion body formation
- clinical isolates containing TEM or SHV sensitized to Ampicillin [2]: 87%
- Tox beheviour IP ([3]; 2 mg/Kg): no sign of tox
- Tox beheviour IV ([3]; 2 mg/Kg): no sign of tox
- Tox beheviour Sub ([3]; 2 mg/Kg): no sign of tox
- Tox beheviour IP ([3]; 5 mg/Kg): no sign of tox
- Tox beheviour IV ([3]; 5 mg/Kg): no sign of tox
- Tox beheviour Sub ([3]; 5 mg/Kg): no sign of tox
- Tox beheviour IP ([3]; 10 mg/Kg): no sign of tox
- Tox beheviour IV ([3]; 10 mg/Kg): no sign of tox
- Tox beheviour Sub ([3]; 10 mg/Kg): no sign of tox
- Tox beheviour IP ([3]; 15 mg/Kg): no sign of tox
- Tox beheviour IV ([3]; 15 mg/Kg): no sign of tox
- Tox beheviour Sub ([3]; 15 mg/Kg): no sign of tox
- Tox beheviour IP ([3]; 20 mg/Kg): no sign of tox
- Tox beheviour IV ([3]; 20 mg/Kg): no sign of tox
- Tox beheviour Sub ([3]; 20 mg/Kg): no sign of tox
- TEM protein in inclusion body fraction, western blot (in words) [4]: clear enrichment of the TEM protein in IBs
